Measurements taken from patent publication US20050197350A1, “Novel quinoline, tetrahydroquinazoline, and pyrimidine derivatives and methods of treatment related to the use thereof” (TAISHO PHARMACEUTICAL CO., LTD., priority 2003, published 2005).

System: MCH receptors
Experiment: MCH receptor activity class (method not given)
[1] = MCH receptor, class by percent of control at 10^-7 M or IC50
[2] = MCH receptor activity class 1-3 (percent of control at 10^-7 M or IC50)
[3] = class by percent of control at 10^-7 M or IC50
[4] = class 1-3 by percent of control at 10^-7 M or IC50

| Compound | class [3] | other results |
| --- | --- | --- |
| CN(C)c1nc(N[C@H]2CC[C@@H](NC(=S)NCCc3ccc(Cl)cc3)CC2)nc2c1CCCC2 [compound 1998] |  | class [1]: 3 (Class 3 The value of percent of control at 10^−7 M was more than 60% or the value of IC50 was more than 200 nM.) |
| CC(C)c1ccccc1NC(=O)NC[C@H]1CC[C@@H](Nc2nc3c(c(N(C)C)n2)CCCC3)CC1 [compound 2472] |  | class [2]: 3 (Class 3 The value of percent of control at 10^−7 M was more than 60% or the value of IC50 was more than 200 nM.) |
| Cc1cc(C(=O)N[C@H]2CC[C@@H](Nc3nc4c(c(N(C)C)n3)CCCC4)CC2)ccc1[N+](=O)[O-] [compound 965] | 1 (Class 1: The value of percent of control at 10^−7 M was less than 40% or the value of IC50 was less than 50 nM.) |  |
| CN(C)c1cc(N[C@H]2CC[C@@H](CNC(=O)c3cc(Cl)cc(Cl)c3)CC2)nc2ccccc12 [compound 157] |  | class [1]: 3 (Class 3 The value of percent of control at 10^−7 M was more than 60% or the value of IC50 was more than 200 nM.) |
| Cc1cc(NC(=O)NC[C@H]2CC[C@@H](Nc3nccc(N(C)C)n3)CC2)c(C(F)(F)F)o1 [compound 2438] |  | class [2]: 3 (Class 3 The value of percent of control at 10^−7 M was more than 60% or the value of IC50 was more than 200 nM.) |
| CN(C)c1nc(N[C@H]2CC[C@@H](CNC(=O)c3cccc(I)c3)CC2)nc2c1CCCC2 [compound 620] | 3 (Class 3 The value of percent of control at 10^−7 M was more than 60% or the value of IC50 was more than 200 nM.) |  |
| CN(C)c1nc(N[C@H]2CC[C@@H](NC(=O)Nc3cccc(C#N)c3)CC2)nc2c1CCCC2 [compound 1817] | 3 (Class 3 The value of percent of control at 10^−7 M was more than 60% or the value of IC50 was more than 200 nM.) |  |
| CN(C)c1ccnc(N[C@H]2CC[C@@H](NC(=O)c3cccc(C(=O)c4ccccc4)c3)CC2)n1 [compound 873] | 2 (Class 2: The value of percent of control at 10^−7 M was from 40% to 60% or the value of IC′50 was from 50 nM to 200 nM.) |  |
| CCOC(=O)N[C@H]1CC[C@@H](Nc2nccc(N(C)C)n2)CC1 [compound 1627] |  | class (activity class 1-3: percent of control at 10^-7 M or IC50): 3 (Class 3 The value of percent of control at 10^−7 M was more than 60% or the value of IC50 was more than 200 nM.) |
| CN(C)c1ccnc(N[C@H]2CC[C@@H](NC(=O)CCc3ccc(Cl)c(Cl)c3)CC2)n1 [compound 837] | 3 (Class 3 The value of percent of control at 10^−7 M was more than 60% or the value of IC50 was more than 200 nM.) |  |
| CN(C)c1nc(N[C@H]2CC[C@@H](NC(=S)Nc3ccc(F)cc3F)CC2)nc2c1CCCC2 [compound 1972] |  | class [1]: 3 (Class 3 The value of percent of control at 10^−7 M was more than 60% or the value of IC50 was more than 200 nM.) |
| CN(C)c1cc(N[C@H]2CC[C@@H](NC(=O)c3ccccc3CCc3ccccc3)CC2)nc2ccccc12 [compound 732] | 3 (Class 3 The value of percent of control at 10^−7 M was more than 60% or the value of IC50 was more than 200 nM.) |  |
| CN(C)c1ccnc(N[C@H]2CC[C@@H](NC(=O)Cc3cc(C(C)(C)C)c(O)c(C(C)(C)C)c3)CC2)n1 [compound 842] | 1 (Class 1: The value of percent of control at 10^−7 M was less than 40% or the value of IC50 was less than 50 nM.) |  |
| Cc1cc(N(C)C)nc(N[C@H]2CC[C@@H](CNC(=O)c3ccc(F)c(C)c3)CC2)n1 [compound 2756] |  | class (class by percent of control at 10^−7 M or IC50): 3 (Class 3 The value of percent of control at 10^−7 M was more than 60% or the value of IC50 was more than 200 nM.) |
| Cc1cc(Cl)ccc1NC(=O)N[C@H]1CC[C@@H](Nc2nc3c(c(N(C)C)n2)CCCC3)CC1 [compound 1724, N-(4-chloro-2-methylphenyl)-N′-(cis-4-{[4-(dimethylamino)-5,6,7,8-tetrahydroquinazolin-2-yl]amino}cyclohexyl)urea] | 2 (Class 2: The value of percent of control at 10^−7 M was from 40% to 60% or the value of IC′50 was from 50 nM to 200 nM.) |  |
| CN(C)c1nc(N[C@H]2CC[C@@H](NC(=O)c3ccc(C(F)(F)F)cc3)CC2)nc2c1CCCC2 [compound 553] |  | class [4]: 3 (Class 3 The value of percent of control at 10^−7 M was more than 60% or the value of IC50 was more than 200 nM.) |
| Cc1cccc(Cl)c1NC(=O)NC[C@H]1CC[C@@H](Nc2nc3c(c(N(C)C)n2)CCCC3)CC1 [compound 2466, N-(2-chloro-6-methylphenyl)-N′-[(cis-4-{[4-(dimethylamino)-5,6,7,8-tetrahydroquinazolin-2-yl]amino}cyclohexyl)methyl]urea] |  | class [2]: 1 (Class 1: The value of percent of control at 10^−7 M was less than 40% or the value of IC50 was less than 50 nM.) |
| CN(C)c1nc(N[C@H]2CC[C@@H](CNCc3ccccc3C#N)CC2)nc2c1CCCC2 [compound 1389] | 3 (Class 3 The value of percent of control at 10^−7 M was more than 60% or the value of IC50 was more than 200 nM.) |  |
| Cc1c(C(=O)N[C@H]2CC[C@@H](Nc3cc(N(C)C)c4ccccc4n3)CC2)cc(-c2ccccc2)n1-c1ccccc1 [compound 751] | 3 (Class 3 The value of percent of control at 10^−7 M was more than 60% or the value of IC50 was more than 200 nM.) |  |
| Cc1cc(C(=O)NC[C@H]2CC[C@@H](Nc3cc(N(C)C)c4ccccc4n3)CC2)ccc1F [compound 208, N-[(cis-4-{[4-(dimethylamino)quinolin-2-yl]amino}cyclohexyl)methyl]-4-fluoro-3-methylbenzamide] |  | class [1]: 3 (Class 3 The value of percent of control at 10^−7 M was more than 60% or the value of IC50 was more than 200 nM.) |
| CN(C)c1ccnc(N[C@H]2CC[C@@H](CNC(=O)c3cc(C(C)(C)C)nn3C)CC2)n1 [compound 431] |  | class [4]: 3 (Class 3 The value of percent of control at 10^−7 M was more than 60% or the value of IC50 was more than 200 nM.) |
| CN(C)c1cc(N[C@H]2CC[C@@H](CNC(=O)c3c(F)cccc3F)CC2)nc2ccccc12 [compound 229] | 3 (Class 3 The value of percent of control at 10^−7 M was more than 60% or the value of IC50 was more than 200 nM.) |  |
| CN(C)c1cc(N[C@H]2CC[C@@H](NC(=O)c3ccc(Cl)cc3)CC2)nc2ccccc12 [compound 25] |  | class [1]: 1 (Class 1: The value of percent of control at 10^−7 M was less than 40% or the value of IC50 was less than 50 nM.) |
| COc1cc(OC)c(NC(=O)N[C@H]2CC[C@@H](Nc3nc4c(c(N(C)C)n3)CCCC4)CC2)cc1Cl [compound 1727] | 1 (Class 1: The value of percent of control at 10^−7 M was less than 40% or the value of IC50 was less than 50 nM.) |  |
| CCCc1ccccc1NC(=O)NC[C@H]1CC[C@@H](Nc2nc3c(c(N(C)C)n2)CCCC3)CC1 [compound 2474] |  | class [2]: 3 (Class 3 The value of percent of control at 10^−7 M was more than 60% or the value of IC50 was more than 200 nM.) |
| CCCN(CCC)S(=O)(=O)c1ccc(C(=O)N[C@H]2CC[C@@H](Nc3cc(N(C)C)c4ccccc4n3)CC2)cc1 [compound 138] |  | class [1]: 3 (Class 3 The value of percent of control at 10^−7 M was more than 60% or the value of IC50 was more than 200 nM.) |
| CN(C)c1nc(N[C@H]2CC[C@@H](NC(=S)Nc3ccc(N(C)C)c4ccccc34)CC2)nc2c1CCCC2 [compound 1747] | 2 (Class 2: The value of percent of control at 10^−7 M was from 40% to 60% or the value of IC′50 was from 50 nM to 200 nM.) |  |
| CN(C)c1nc(N[C@H]2CC[C@@H](NC(=O)Nc3ccccc3OC(F)F)CC2)nc2c1CCCC2 [compound 1843] | 3 (Class 3 The value of percent of control at 10^−7 M was more than 60% or the value of IC50 was more than 200 nM.) |  |
| COc1cc(CC(=O)N[C@H]2CC[C@@H](Nc3cc(N(C)C)c4ccccc4n3)CC2)cc(OC)c1O [compound 700] | 3 (Class 3 The value of percent of control at 10^−7 M was more than 60% or the value of IC50 was more than 200 nM.) |  |
